According to ChEMBL document CHEMBL5352497, “Aromatic hydrazides: A potential solution for Acinetobacter baumannii infections” (Eur J Med Chem, 2023):
Values after ≈ are worked out from the molar mass of the structure shown.

Legend:
Acinetobacter baumannii [1] = assay: Antibacterial activity against Acinetobacter baumannii ATCC 19606; assay type: functional
[2] = Hemolytic activity in mouse RBC at 8 ug/ml incubated for 1 hr; assay type: toxicity, cell-based, Erythrocyte; details: red blood cells (erythrocytes), at 8 µg/mL, read-out: Activity
Erythrocyte = assay: (§1) Hemolytic activity in mouse RBC at 32 ug/ml incubated for 1 hr; assay type: toxicity, cell-based; details: erythrocyte, 1 h, dose 32 µg/ml
Salmonella enterica = assay: Antibacterial activity against Salmonella enterica ATCC 14028; assay type: functional
Klebsiella pneumoniae = assay: Antibacterial activity against Klebsiella pneumoniae ATCC 27736; assay type: functional
Enterobacter cloacae = assay: Antibacterial activity against Enterobacter cloacae ATCC 13047; assay type: functional
Staphylococcus aureus = assay: Antibacterial activity against Staphylococcus aureus ATCC 25923; assay type: functional
[3] = test system: Staphylococcus epidermidis; assay: Antibacterial activity against Staphylococcus epidermidis ATCC 12228; assay type: functional
HEK293 [4] = assay: Cytotoxicity against HEK293 cells at 8 ug/ml; assay type: toxicity, cell-based; details: human, dose 8 µg/ml
Bacillus anthracis = assay: Antibacterial activity against Bacillus anthracis Sterne F32; assay type: functional
Acinetobacter baumannii [5] = assay: Antibacterial activity against Acinetobacter baumannii BAA1605; assay type: functional
Pseudomonas aeruginosa = assay: Antibacterial activity against Pseudomonas aeruginosa ATCC 27853; assay type: functional
Escherichia coli = assay: Antibacterial activity against Escherichia coli MC1061; assay type: functional
[6] = as §1; assay type: toxicity, cell-based, Erythrocyte; details: red blood cells (erythrocytes), at 32 µg/mL, read-out: Activity
HEK293 [7] = assay: Cytotoxicity against HEK293 cells at 32 ug/ml; assay type: toxicity, cell-based; details: human, at 32 µg/mL

Row | Compound | MIC (Acinetobacter baumannii [1]) [µg/mL] | hemolysis at 1 h, 8 ug/ml [2] [%] | Activity (Erythrocyte) | MIC (Salmonella enterica) [µg/mL] | MIC (Klebsiella pneumoniae) [µg/mL] | MIC (Enterobacter cloacae) [µg/mL] | MIC (Staphylococcus aureus) [µg/mL] | MIC [3] [µg/mL] | Activity (HEK293 [4]) | MIC (Bacillus anthracis) [µg/mL] | MIC (Acinetobacter baumannii [5]) [µg/mL] | MIC (Pseudomonas aeruginosa) [µg/mL] | MIC (Escherichia coli) [µg/mL] | hemolysis at 1 h, 32 ug/ml [6] [%] | Activity (HEK293 [7]) [%]
1 | C=CC(=O)NNc1ccc(Cl)cc1 | 0.25 (≈ 1.27 µM) | < 10 | Non-Toxic | 16 (≈ 81.4 µM) | 16 (≈ 81.4 µM) | 16 (≈ 81.4 µM) | 64 (≈ 325 µM) | 64 (≈ 325 µM) | Non-Toxic | > 64 | 0.25 (≈ 1.27 µM) | > 64 | 16 (≈ 81.4 µM) | – | –
2 | COc1cccc(NNC(=O)c2ccc(F)cn2)c1 | 0.5 (≈ 1.91 µM) | < 10 | Non-Toxic | > 64 | > 64 | > 64 | > 64 | 64 (≈ 245 µM) | Non-Toxic | > 64 | 0.5 (≈ 1.91 µM) | > 64 | > 64 | – | –
3 | O=C(NNc1ccc(F)cc1)c1ccc(F)cn1 | 0.5 (≈ 2.01 µM) | < 10 | Non-Toxic | 64 (≈ 257 µM) | 64 (≈ 257 µM) | 64 (≈ 257 µM) | > 64 | > 64 | Non-Toxic | > 64 | 0.25 (≈ 1 µM) | > 64 | 64 (≈ 257 µM) | – | –
4 | O=C(NNc1cccc(F)c1)c1ccc2ccccc2n1 | – | < 10 | – | – | – | – | – | – | Non-Toxic | – | – | – | – | 20 | 40
5 | O=C(NNC1CCCCC1)c1ccc2ccccc2n1 | > 64 | < 10 | Non-Toxic | > 64 | > 64 | > 64 | > 64 | > 64 | Non-Toxic | > 64 | > 64 | > 64 | 64 (≈ 238 µM) | – | –
6 | O=C(NNc1ccc(Cl)cc1)c1cccc(F)n1 | ≤ 0.125 | < 10 | Non-Toxic | 16 (≈ 60.2 µM) | 16 (≈ 60.2 µM) | 16 (≈ 60.2 µM) | > 64 | > 64 | Non-Toxic | > 64 | ≤ 0.125 | > 64 | 16 (≈ 60.2 µM) | – | –
